Data on two compounds can be found in ChEMBL document CHEMBL5608182, “Synthesis and evaluation of neuroactive steroids with novel pharmacophore at C-21 let identify a compound with advantageous PK profile and higher EC50 and Emax as PAM on GABAA receptor” (Eur J Med Chem, 2024).

A word on the IC50: it is the concentration that inhibits the measured activity by half. In general, half-life refers to the time in which the quantity being followed falls by half. A lower half-life goes with fast loss. One may read the EC50 as the concentration at which the effect is half-maximal. The Tmax is the time from dosing to the highest level. A word on the AUC(0-t): it is the area under the concentration-time curve up to a stated or last time point. A lower AUC(0-t) goes with low exposure. In general, MRT last refers to the average time that molecules of a dose stay in the body.

A short description of series [1]: Metabolic stability in human liver microsomes assessed as intrinsic clearance at 1 uM preincubated for 10 mins followed by NADPH addition by LC-MS analysis. The settings on record: read-out: CLH. The class given is ADME, Microsome. A general note: Liver microsomes are vesicles of endoplasmic reticulum, rich in cytochrome P450 enzymes.
For series [2], the target named is Cytochrome P450 2D6 (Homo sapiens, UniProt P10635). The series is described as follows: Inhibition of CYP2D6 (unknown origin). Format: ADME.
Series [3] can be described thus: Half life in male Sprague-Dawley rat at 6.1 micromol/kg, iv administered as single dose and measured upto 24 hrs by LC-MS/MS analysis. Format: ADME, organism-based. The settings on record: in vivo, dose 6.1 µmol/kg.
A short description of series [4]: Drug concentration in Sprague-Dawley rat brain at 24.4 micromol/kg, IG measured after 0.5 hrs by LC-MS/MS analysis. Format: ADME, tissue-based. The settings on record: in vivo, po, dose 24.4 µmol/kg.
For series [5], the target named is Gamma-aminobutyric acid receptor subunit alpha-4/beta3/delta (Homo sapiens, UniProt O14764+P28472+P48169). The series is described as follows: Positive allosteric modulation of extrasynaptic alpha4beta3delta GABA-A receptor (unknown origin) transfected in CHO cells assessed as potentiation of GABA-induced peak current amplitude at -80 mV holding potential preincubated for 30 secs followed by GABA stimulation for 2 secs by manual patch assay. The class given is cell-based.

A short description of series [6]: Tmax in male Sprague-Dawley rat at 24.4 micromol/kg, IG administered as single dose and measured upto 24 hrs by LC-MS/MS analysis. Format: ADME. The settings on record: in vivo, po, dose 24.4 µmol/kg.
Series [7] can be described thus: AUClast in male Sprague-Dawley rat at 24.4 micromol/kg, IG administered as single dose and measured upto 24 hrs by LC-MS/MS analysis. The settings on record: in vivo, po, dose 24.4 µmol/kg. The class given is ADME.
Series [8] has as its target T1, GABA-A receptor; alpha-1/beta-2/gamma-2 (Homo sapiens, UniProt P14867+P18507+P47870).
T1 sequence (P14867 whole entry): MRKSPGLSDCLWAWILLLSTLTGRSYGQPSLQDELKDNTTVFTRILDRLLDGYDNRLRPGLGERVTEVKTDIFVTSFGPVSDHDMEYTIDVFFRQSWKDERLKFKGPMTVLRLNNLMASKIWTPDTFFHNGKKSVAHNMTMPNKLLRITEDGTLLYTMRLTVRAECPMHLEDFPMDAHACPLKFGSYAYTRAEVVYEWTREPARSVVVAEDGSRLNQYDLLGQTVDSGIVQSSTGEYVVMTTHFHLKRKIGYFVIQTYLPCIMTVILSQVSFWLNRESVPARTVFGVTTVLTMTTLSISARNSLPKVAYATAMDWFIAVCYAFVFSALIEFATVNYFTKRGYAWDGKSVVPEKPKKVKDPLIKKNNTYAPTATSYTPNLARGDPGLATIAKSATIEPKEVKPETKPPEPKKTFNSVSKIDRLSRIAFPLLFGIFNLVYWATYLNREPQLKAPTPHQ
T1 sequence (P47870 whole entry): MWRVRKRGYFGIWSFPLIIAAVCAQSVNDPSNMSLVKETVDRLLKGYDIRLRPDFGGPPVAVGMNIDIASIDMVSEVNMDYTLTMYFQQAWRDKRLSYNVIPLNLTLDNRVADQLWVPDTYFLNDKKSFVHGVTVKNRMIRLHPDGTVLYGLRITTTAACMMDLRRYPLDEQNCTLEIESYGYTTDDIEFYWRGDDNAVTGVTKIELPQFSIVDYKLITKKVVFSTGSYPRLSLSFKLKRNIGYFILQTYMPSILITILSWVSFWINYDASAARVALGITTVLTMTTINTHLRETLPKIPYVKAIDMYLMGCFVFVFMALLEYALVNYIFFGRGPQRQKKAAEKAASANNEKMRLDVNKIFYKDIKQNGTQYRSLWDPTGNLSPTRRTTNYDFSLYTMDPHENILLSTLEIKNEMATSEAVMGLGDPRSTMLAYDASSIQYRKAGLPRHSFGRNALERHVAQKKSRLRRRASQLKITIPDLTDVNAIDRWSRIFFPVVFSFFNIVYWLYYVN
T1 sequence (P18507 whole entry): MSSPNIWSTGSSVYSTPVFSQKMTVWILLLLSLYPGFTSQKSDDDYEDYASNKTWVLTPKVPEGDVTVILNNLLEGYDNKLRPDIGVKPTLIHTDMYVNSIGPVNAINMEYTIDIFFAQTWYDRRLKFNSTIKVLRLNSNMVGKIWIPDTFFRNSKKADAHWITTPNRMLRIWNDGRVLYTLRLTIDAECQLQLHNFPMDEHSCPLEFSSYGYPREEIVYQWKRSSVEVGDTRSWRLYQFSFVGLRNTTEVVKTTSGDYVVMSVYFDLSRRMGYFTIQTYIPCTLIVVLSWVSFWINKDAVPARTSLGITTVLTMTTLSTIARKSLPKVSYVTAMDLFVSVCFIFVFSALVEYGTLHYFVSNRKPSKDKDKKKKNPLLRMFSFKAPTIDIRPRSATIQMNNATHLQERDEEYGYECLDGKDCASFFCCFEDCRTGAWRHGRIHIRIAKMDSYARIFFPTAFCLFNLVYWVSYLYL
In words: Positive allosteric modulation of synaptic alpha1beta2gamma2 GABA-A receptor (unknown origin) transfected in LTK cells assessed as potentiation of GABA-induced peak current amplitude at -80 mV holding potential preincubated for 30 secs followed by GABA stimulation for 2 secs by Q-patch assay. Format: cell-based.

The nature of series [9]: MRTlast in male Sprague-Dawley rat at 6.1 micromol/kg, iv administered as single dose and measured upto 24 hrs by LC-MS/MS analysis. The class given is ADME, organism-based. The settings on record: in vivo, dose 6.1 µmol/kg.
A short description of series [10]: Metabolic stability in human liver microsomes assessed as compound remaining at 1 uM preincubated for 10 mins followed by NADPH addition by LC-MS analysis. Format: ADME, Microsome. The note with it: read-out: Stability.
Series [11] can be described thus: Metabolic stability in Sprague-Dawley rat liver microsomes assessed as compound remaining at 1 uM preincubated for 10 mins followed by NADPH addition by LC-MS analysis. The class given is ADME, Microsome. The note with it: read-out: Stability.
Series [12] addresses Cytochrome P450 3A4 (Homo sapiens, UniProt P08684). In words: Inhibition of CYP3A4 (unknown origin). Format: ADME.
The nature of series [13]: Apparent volume of distribution in male Sprague-Dawley rat at 24.4 micromol/kg, IG administered as single dose and measured upto 24 hrs by LC-MS/MS analysis. Format: ADME. The settings on record: in vivo, po, dose 24.4 µmol/kg.
Series [14] can be described thus: Apparent volume of distribution in male Sprague-Dawley rat at 6.1 micromol/kg, iv administered as single dose and measured upto 24 hrs by LC-MS/MS analysis. Format: ADME, organism-based. The settings on record: in vivo, dose 6.1 µmol/kg, read-out: Vz.
A short description of series [15]: AUClast in male Sprague-Dawley rat at 6.1 micromol/kg, iv administered as single dose and measured upto 24 hrs by LC-MS/MS analysis. The note with it: in vivo, dose 6.1 µmol/kg. The class given is ADME, organism-based.
A short description of series [16]: Metabolic stability in Sprague-Dawley rat liver microsomes assessed as intrinsic clearance at 1 uM preincubated for 10 mins followed by NADPH addition by LC-MS analysis. The class given is ADME, Microsome. The settings on record: read-out: CLH.
Series [17] in a line: Drug concentration in Sprague-Dawley rat brain at 24.4 micromol/kg, IG measured after 6 hrs by LC-MS/MS analysis. The class given is ADME, tissue-based. The settings on record: in vivo, po, dose 24.4 µmol/kg.

Sequence of Cytochrome P450 2D6 (P10635 whole entry): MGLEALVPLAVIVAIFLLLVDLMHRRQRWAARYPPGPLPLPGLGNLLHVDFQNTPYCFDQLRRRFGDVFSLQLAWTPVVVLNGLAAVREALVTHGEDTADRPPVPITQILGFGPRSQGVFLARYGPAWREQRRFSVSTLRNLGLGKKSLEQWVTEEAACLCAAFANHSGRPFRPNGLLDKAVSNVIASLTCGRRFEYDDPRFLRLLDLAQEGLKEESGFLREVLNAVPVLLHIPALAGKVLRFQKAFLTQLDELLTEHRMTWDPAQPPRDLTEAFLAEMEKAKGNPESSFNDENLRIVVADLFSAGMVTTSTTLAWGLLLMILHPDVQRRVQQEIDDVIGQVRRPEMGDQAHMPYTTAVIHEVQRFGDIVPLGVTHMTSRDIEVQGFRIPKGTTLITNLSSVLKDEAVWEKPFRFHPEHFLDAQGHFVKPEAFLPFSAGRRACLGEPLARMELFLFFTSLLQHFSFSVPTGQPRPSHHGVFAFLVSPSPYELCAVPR
Sequence of Gamma-aminobutyric acid receptor subunit alpha-4/beta3/delta (P28472 whole entry): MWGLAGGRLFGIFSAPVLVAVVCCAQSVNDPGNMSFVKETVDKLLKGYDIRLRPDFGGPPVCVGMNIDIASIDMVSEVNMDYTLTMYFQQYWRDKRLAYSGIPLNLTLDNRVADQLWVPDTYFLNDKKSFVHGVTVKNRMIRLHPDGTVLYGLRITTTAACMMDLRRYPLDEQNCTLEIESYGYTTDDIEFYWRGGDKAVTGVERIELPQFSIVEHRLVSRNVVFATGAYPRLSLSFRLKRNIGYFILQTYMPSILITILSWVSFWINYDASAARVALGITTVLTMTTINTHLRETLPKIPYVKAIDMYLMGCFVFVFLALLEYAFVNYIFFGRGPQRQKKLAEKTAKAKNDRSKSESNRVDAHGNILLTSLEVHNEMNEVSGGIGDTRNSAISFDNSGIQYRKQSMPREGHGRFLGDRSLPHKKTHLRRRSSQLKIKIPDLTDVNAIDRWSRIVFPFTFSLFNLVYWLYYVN
Sequence of Gamma-aminobutyric acid receptor subunit alpha-4/beta3/delta (P48169 whole entry): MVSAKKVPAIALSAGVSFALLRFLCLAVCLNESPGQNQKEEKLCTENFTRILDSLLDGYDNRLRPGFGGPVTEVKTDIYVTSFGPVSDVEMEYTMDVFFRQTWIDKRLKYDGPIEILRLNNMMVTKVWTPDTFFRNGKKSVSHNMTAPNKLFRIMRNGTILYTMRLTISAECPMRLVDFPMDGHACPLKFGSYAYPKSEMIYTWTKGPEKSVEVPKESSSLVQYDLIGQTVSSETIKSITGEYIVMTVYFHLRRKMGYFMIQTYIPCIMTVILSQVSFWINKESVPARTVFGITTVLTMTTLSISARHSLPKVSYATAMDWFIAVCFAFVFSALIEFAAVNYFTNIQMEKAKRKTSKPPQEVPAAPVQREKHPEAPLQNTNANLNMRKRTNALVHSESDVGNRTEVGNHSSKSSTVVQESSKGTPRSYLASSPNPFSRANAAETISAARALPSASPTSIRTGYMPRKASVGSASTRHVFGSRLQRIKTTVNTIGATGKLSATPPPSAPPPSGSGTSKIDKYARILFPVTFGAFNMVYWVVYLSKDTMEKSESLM
Sequence of Gamma-aminobutyric acid receptor subunit alpha-4/beta3/delta (O14764 whole entry): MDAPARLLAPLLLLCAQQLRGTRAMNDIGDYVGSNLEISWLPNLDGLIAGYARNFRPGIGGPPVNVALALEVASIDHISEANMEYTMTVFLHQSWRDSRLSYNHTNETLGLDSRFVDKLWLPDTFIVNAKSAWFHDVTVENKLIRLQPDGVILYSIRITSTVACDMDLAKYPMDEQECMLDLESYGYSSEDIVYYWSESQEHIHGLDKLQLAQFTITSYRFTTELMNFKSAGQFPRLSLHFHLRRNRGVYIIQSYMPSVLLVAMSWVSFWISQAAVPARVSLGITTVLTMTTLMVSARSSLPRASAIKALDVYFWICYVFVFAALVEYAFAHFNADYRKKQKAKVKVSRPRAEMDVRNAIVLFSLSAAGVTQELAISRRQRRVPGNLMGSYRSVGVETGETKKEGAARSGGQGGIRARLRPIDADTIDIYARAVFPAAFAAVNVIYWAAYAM
Sequence of Cytochrome P450 3A4 (P08684 whole entry): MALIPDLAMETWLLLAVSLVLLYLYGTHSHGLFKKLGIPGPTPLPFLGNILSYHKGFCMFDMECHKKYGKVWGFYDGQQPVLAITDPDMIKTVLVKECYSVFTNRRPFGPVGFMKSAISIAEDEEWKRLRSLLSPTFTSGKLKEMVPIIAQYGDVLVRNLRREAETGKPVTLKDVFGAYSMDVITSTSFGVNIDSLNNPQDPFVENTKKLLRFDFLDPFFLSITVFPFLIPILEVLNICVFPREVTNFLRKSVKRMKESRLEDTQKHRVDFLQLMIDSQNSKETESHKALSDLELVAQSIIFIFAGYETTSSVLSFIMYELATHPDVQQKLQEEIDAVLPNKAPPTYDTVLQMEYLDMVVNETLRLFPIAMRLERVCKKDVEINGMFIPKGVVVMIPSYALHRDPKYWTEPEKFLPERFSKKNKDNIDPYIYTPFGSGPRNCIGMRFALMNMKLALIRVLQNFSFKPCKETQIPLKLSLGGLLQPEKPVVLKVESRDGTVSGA

Consider `C[C@@]1(O)CC[C@H]2[C@H](CC[C@@H]3[C@@H]2CC[C@]2(C)[C@@H](C(=O)Cn4cnn(-c5cc(F)nc(F)c5)c4=O)CC[C@@H]32)C1`, for which the CLint scaled at 1 µM in series [1] is < 6.75 mL/min/kg; in series [16] it was 23 mL/min/kg. For the same compound, the IC50 in [2] and in [12] was > 30000 nM in each case. Also, in series [3], the half-life was 5.2 h. The Ct stood at 2320 nmol/kg in series [4] and 2339 nmol/kg in [17]. Also, the EC50 came out at 75 nM in [5] and 141 nM in series [8]. Also, the Tmax in [6] is 2.01 h. For the same compound, the exposure AUC(0-t) at 24 h in series [7] worked out at 24 µM·h; in [15], 6.03 µM·h. The mean residence time MRT last at 24 h in series [9] worked out at 4.75 h. Further, the remaining at 1 µM in series [10] was determined as 98%; in series [11], 68%. In addition, the Vz in series [13] worked out at 8.86 L/kg. The Vd in [14] was 7.38 L/kg.

Regarding `C[C@@]1(O)CC[C@H]2[C@H](CC[C@@H]3[C@@H]2CC[C@]2(C)[C@@H](C(=O)Cn4cc(C#N)cn4)CC[C@@H]32)C1` [ZURANOLONE], the CLint scaled at 1 µM was found to be 10.6 mL/min/kg in series [1] and 51.8 mL/min/kg in [16]. Moreover, the IC50 in series [2] and in [12] was > 30000 nM throughout. This compound showed a half-life in series [3] of 2.45 h. In addition, the Ct came out at 3103 nmol/kg in series [4] and 193 nmol/kg in series [17]. The results for the EC50 in [5] and in series [8] were 135 nM and 152 nM, respectively. Moreover, the Tmax in [6] amounted to 1.17 h. The AUC(0-t) at 24 h worked out at 12 µM·h in [7] and 5.21 µM·h in series [15]. Also, in series [9], the MRT last at 24 h is 2.12 h. Further, the results for the remaining at 1 µM in series [10] and in series [11] were 72% and 40%, respectively. Besides, the Vz in series [13] was determined as 10.54 L/kg. The Vd in series [14] was found to be 4.66 L/kg.
